Values after ≈ are worked out from the molar mass of the structure shown. Like-named read-outs stand apart in the source and are kept apart here.
Legend:
[1] = test system: Mycobacterium smegmatis strain ATCC19420; test: In vitro efficacy test using Mycobacterium smegmatis strain ATCC19420 (MIC); type: cell-based; conditions: Mycolicibacterium smegmatis, ATCC19420, 72 h, CA-MHB + 0.02% Tween 80, 30° C., read after 72 hours
[2] = test system: M. tuberculosis H37Rv; test: In vitro efficacy test using the H37Rv strain, Microplate Alamar Blue Assay (MABA) MIC; type: cell-based, Mycobacterium tuberculosis; conditions: for MIC: Mycobacterium tuberculosis, H37RV
[3] = test system: M. tuberculosis H37R; test: microbe, parasite or virus in culture; type: cell-based, Mycobacterium tuberculosis; conditions: Mycobacterium tuberculosis, H37R; read-out: M. tuberculosis H37R LORA (MIC)
[4] = test system: Vero Cell; test: Vero cell cytotoxicity (IC50); type: cell-based; conditions: Chlorocebus sabaeus, Vero, African green monkey kidney cells
[5] = Hela cell cytotoxicity (CC50); conditions: human, HeLa cells (human cervical cancer cells), CC50_Hela, half of the toxic concentration
[6] = aerobic, 7H9 medium, Alamar Blue, read-out: M. tuberculosis H37Rv MABA (MIC)
[7] = wild-type H37Rv strain, two values per compound, read-out: MABA MIC vs. H37Rv

Row | SMILES | MIC [1] | MIC [2, 6] | MIC [3] | IC50 [4] | CC50 [5] | inhibitory activity against M. tuberculosis H37Rv, aerobic (MABA) (in words) [2] | MIC [2, 7] | MABA MIC vs. H37Rv ([2]; wild-type H37Rv strain, two values per compound)
1 | COc1ncc(-c2ccc(F)cc2)cc1C(c1ccccc1)C(O)(CCN(C)C)c1cccc2ccccc12 (centres unmarked) [Compound 91, 4-(dimethylamino)-1-(5-(4-fluorophenyl)-2-methoxypyridin-3-yl)-2-(naphthalen-1-yl)-1-phenylbutan-2-ol] | 0.0312 µg/mL | 0.34 µg/mL | 0.71 µg/mL (≈ 1.36 µM) | > 50 µg/mL | > 64 µg/mL | – | – | –
2 | COc1ncc(-c2ccccc2Cl)cc1C(c1ccccc1)C(O)(CCN(C)C)c1cccc2ccccc12 (centres unmarked) [Compound 107] | 0.5 µg/mL | 1.17 µg/mL | 3.03 µg/mL (≈ 5.64 µM) | > 50 µg/mL | > 64 µg/mL | – | – | –
3 | COc1ncc(-c2ccc(Cl)cc2)cc1C(c1ccccc1)C(O)(CCN(C)C)c1cccc2ccccc12 (centres unmarked) [Compound 115, 1-(5-(4-chlorophenyl)-2-methoxypyridin-3-yl)-4-(dimethylamino)-2-(naphthalen-1-yl)-1-phenylbutan-2-ol] | 0.0156 µg/mL | 0.08 µg/mL | 0.56 µg/mL (≈ 1.04 µM) | > 50 µg/mL | > 64 µg/mL | comparable to that of the marketed anti-TB drug, Bedaquiline | 0.06 µM | –
4 | COc1ncc(-c2ccccc2Br)cc1C(c1ccccc1)C(O)(CCN(C)C)c1cccc2ccccc12 (centres unmarked) [Compound 125, 1-(5-(2-bromophenyl)-2-methoxypyridin-3-yl)-4-(dimethylamino)-2-(naphthalen-1-yl)-1-phenylbutan-2-ol] | 0.5 µg/mL | 1.84 µg/mL | 1.89 µg/mL (≈ 3.25 µM) | > 32 µg/mL | > 64 µg/mL | – | – | –
5 | COc1ncc(-c2cccc(Br)c2)cc1C(c1ccccc1)C(O)(CCN(C)C)c1cccc2ccccc12 (centres unmarked) [Compound 129, 1-(5-(3-bromophenyl)-2-methoxypyridin-3-yl)-4-(dimethylamino)-2-(naphthalen-1-yl)-1-phenylbutan-2-ol] | 0.5 µg/mL | 1.88 µg/mL | 2.57 µg/mL (≈ 4.42 µM) | > 32 µg/mL | > 64 µg/mL | – | – | –
6 | COc1ncc(-c2ccc(Br)cc2)cc1C(c1ccccc1)C(O)(CCN(C)C)c1cccc2ccccc12 (centres unmarked) [Compound 133, 1-(5-(4-bromophenyl)-2-methoxypyridin-3-yl)-4-(dimethylamino)-2-(naphthalen-1-yl)-1-phenylbutan-2-ol] | 0.0156 µg/mL | 0.22 µg/mL | 0.22 µg/mL (≈ 0.378 µM) | > 32 µg/mL | > 64 µg/mL | comparable to that of the marketed anti-TB drug, Bedaquiline | 0.12 µM | 0.10 µM
7 | COc1ncc(-c2ccsc2)cc1C(c1ccccc1)C(O)(CCN(C)C)c1cccc2ccccc12 (centres unmarked) [Compound 136, 4-(dimethylamino)-1-(2-methoxy-5-(thiophen-3-yl)pyridin-3-yl)-2-(naphthalen-1-yl)-1-phenylbutan-2-ol] | 0.0312 µg/mL | 0.35 µg/mL | 0.79 µg/mL (≈ 1.55 µM) | > 50 µg/mL | > 64 µg/mL | – | – | –
8 | COc1ncc(-c2cccs2)cc1C(c1ccccc1)C(O)(CCN(C)C)c1cccc2ccccc12 (centres unmarked) [Compound 141, 4-(dimethylamino)-1-(2-methoxy-5-(thiophen-2-yl)pyridin-3-yl)-2-(naphthalen-1-yl)-1-phenylbutan-2-ol] | ≤ 0.0625 µg/mL | 0.93 µg/mL | 1.44 µg/mL (≈ 2.83 µM) | 24.4 µg/mL (≈ 47.9 µM) | > 64 µg/mL | – | – | –
9 | COc1ncc(-c2ccsn2)cc1C(c1ccccc1)C(O)(CCN(C)C)c1cccc2ccccc12 (centres unmarked) [Compound 145, 4-(dimethylamino)-1-(5-(isothiazol-3-yl)-2-methoxypyridin-3-yl)-2-(naphthalen-1-yl)-1-phenylbutan-2-ol] | 0.0625 µg/mL | 0.97 µg/mL | 1.57 µg/mL (≈ 3.08 µM) | 25.1 µg/mL (≈ 49.2 µM) | 12.7 µg/mL (≈ 24.8 µM) | – | – | –
10 | COc1ncc(-c2cccc(C#N)c2)cc1C(c1ccccc1)C(O)(CCN(C)C)c1cccc2ccccc12 (centres unmarked) [Compound 153, 3-(5-(4-(dimethylamino)-2-hydroxyl-2-(naphthalen-1-yl)-1-phenylbutyl)-6-methoxypyridin-3-yl)-benzonitrile] | 0.25 µg/mL | 0.96 µg/mL | 2.54 µg/mL (≈ 4.81 µM) | > 32 µg/mL | > 64 µg/mL | – | – | –
11 | COc1ncc(-c2ccc(C#N)cc2)cc1C(c1ccccc1)C(O)(CCN(C)C)c1cccc2ccccc12 (centres unmarked) [Compound 157, 4-(5-(4-(dimethylamino)-2-hydroxyl-2-(naphthalen-1-yl)-1-phenylbutyl)-6-methoxypyridin-3-yl)-benzonitrile] | 0.0312 µg/mL | 0.44 µg/mL | 0.77 µg/mL (≈ 1.46 µM) | > 32 µg/mL | > 64 µg/mL | – | – | –
12 | COc1ncc(-c2cscn2)cc1C(c1ccccc1)C(O)(CCN(C)C)c1cccc2ccccc12 (centres unmarked) [Compound 161, 4-(dimethylamino)-1-(2-methoxy-5-(thiazol-4-yl)pyridin-3-yl)-2-(naphthalen-1-yl)-1-phenylbutan-2-ol] | 0.125 µg/mL | 1.6 µg/mL | 4.24 µg/mL (≈ 8.32 µM) | 25.1 µg/mL (≈ 49.1 µM) | 14.4 µg/mL (≈ 28.3 µM) | – | – | –
13 | COc1ncc(-c2cnsc2)cc1C(c1ccccc1)C(O)(CCN(C)C)c1cccc2ccccc12 (centres unmarked) [Compound 165, 4-(dimethylamino)-1-(5-(isothiazol-4-yl)-2-methoxypyridin-3-yl)-2-(naphthalen-1-yl)-1-phenylbutan-2-ol] | 0.25 µg/mL | 1.98 µg/mL | 3.94 µg/mL (≈ 7.73 µM) | 26.3 µg/mL (≈ 51.6 µM) | 28.8 µg/mL (≈ 56.5 µM) | – | – | –
14 | COc1ncc(-c2nccs2)cc1C(c1ccccc1)C(O)(CCN(C)C)c1cccc2ccccc12 (centres unmarked) [Compound 169, 4-(dimethylamino)-1-(2-methoxy-5-(thiazol-2-yl)pyridin-3-yl)-2-(naphthalen-1-yl)-1-phenylbutan-2-ol] | 0.25 µg/mL | 1.73 µg/mL | 4.95 µg/mL (≈ 9.71 µM) | 25.9 µg/mL (≈ 50.7 µM) | 19.3 µg/mL (≈ 37.8 µM) | – | – | –
15 | COc1ncc(-c2cncs2)cc1C(c1ccccc1)C(O)(CCN(C)C)c1cccc2ccccc12 (centres unmarked) [Compound 171, 4-(dimethylamino)-1-(2-methoxy-5-(thiazol-5-yl)pyridin-3-yl)-2-(naphthalen-1-yl)-1-phenylbutan-2-ol] | 0.125 µg/mL | 1.7 µg/mL | 2.86 µg/mL (≈ 5.61 µM) | 25.4 µg/mL (≈ 49.7 µM) | 14.3 µg/mL (≈ 28.2 µM) | – | – | –
16 | COc1ncc(C(C)C)cc1C(c1ccccc1)C(O)(CCN(C)C)c1cccc2ccccc12 (centres unmarked) [Compound 175, 4-(dimethylamino)-1-(5-isopropyl-2-methoxypyridin-3-yl)-2-(naphthalen-1-yl)-1-phenylbutan-2-ol] | 0.25 µg/mL | 1.42 µg/mL | 2.83 µg/mL (≈ 6.04 µM) | > 50 µg/mL | 27.6 µg/mL (≈ 59 µM) | – | – | –
17 | COc1ncc(C(C)(C)C)cc1C(c1ccccc1)C(O)(CCN(C)C)c1cccc2ccccc12 (centres unmarked) [Compound 177, 1-(5-tert-butyl-2-methoxypyridin-3-yl)-4-dimethylamino-2-(naphthalen-1-yl)-1-phenylbutan-2-ol] | 0.125 µg/mL | 1.74 µg/mL | 1.81 µg/mL (≈ 3.75 µM) | 27.6 µg/mL (≈ 57.2 µM) | > 64 µg/mL | – | – | –
18 | COc1ncc(-c2ccoc2)cc1C(c1ccccc1)C(O)(CCN(C)C)c1cccc2ccccc12 (centres unmarked) [Compound 178, 4-(dimethylamino)-1-(5-(furan-3-yl)-2-methoxypyridin-3-yl)-2-(naphthalen-1-yl)-1-phenylbutan-2-ol] | 0.0312 µg/mL | 0.78 µg/mL | 0.88 µg/mL (≈ 1.79 µM) | 25.5 µg/mL (≈ 51.8 µM) | 25.8 µg/mL (≈ 52.3 µM) | – | – | –
